We go through 7 compounds from publication PMC6660241 (The Journal of organic chemistry, 2019).

Like-named read-outs stand apart in the source and are kept apart here.

For assay [1], the target named is T1, SpNanC (Streptococcus pneumoniae, UniProt A0A0H2UQE4). As to the kind of experiment: biochemical. The note with it: for inhibition at 100 µM / inhibition at 1000 µM: read-out: Percentage inhibition, SpNanC.
Assay [2] concerns the target T2, hNEU2 (Homo sapiens, UniProt Q9Y3R4). As to the kind of experiment: Sialidase inhibition assay. The note with it: read-out: Percentage inhibition, hNEU2. Type of assay: biochemical.
For assay [3], the target named is C. perfringens sialidase (CpNanI) (Clostridium perfringens, UniProt A0A0H2YQR1). In words: biochemical.
Chain of C. perfringens sialidase (CpNanI) (A0A0H2YQR1 27-694 limits assumed): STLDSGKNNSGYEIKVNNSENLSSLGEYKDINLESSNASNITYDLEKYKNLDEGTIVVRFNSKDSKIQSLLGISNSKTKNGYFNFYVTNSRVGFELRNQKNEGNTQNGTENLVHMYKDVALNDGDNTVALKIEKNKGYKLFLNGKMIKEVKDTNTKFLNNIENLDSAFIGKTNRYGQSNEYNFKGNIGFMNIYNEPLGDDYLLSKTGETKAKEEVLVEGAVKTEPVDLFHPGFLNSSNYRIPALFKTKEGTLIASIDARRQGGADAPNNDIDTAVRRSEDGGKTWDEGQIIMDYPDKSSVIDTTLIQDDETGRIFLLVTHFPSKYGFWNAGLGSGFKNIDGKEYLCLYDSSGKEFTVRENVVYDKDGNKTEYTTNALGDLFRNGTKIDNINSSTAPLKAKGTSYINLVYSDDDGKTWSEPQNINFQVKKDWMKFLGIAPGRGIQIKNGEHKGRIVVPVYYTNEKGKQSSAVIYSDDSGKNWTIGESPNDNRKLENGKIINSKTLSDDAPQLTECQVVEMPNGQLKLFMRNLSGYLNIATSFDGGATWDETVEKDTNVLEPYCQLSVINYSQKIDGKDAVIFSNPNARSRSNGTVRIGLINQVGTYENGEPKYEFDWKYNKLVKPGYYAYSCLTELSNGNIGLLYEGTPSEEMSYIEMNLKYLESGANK
The target in assay [4] is T3, A. ureafaciens sialidase (Paenarthrobacter ureafaciens, UniProt Q5W7Q2). As to the kind of experiment: Sialidase inhibition assay. Type of assay: biochemical, Arthrobacter ureafaciens. Conditions: read-out: Percentage inhibition, A. ureafaciens.
Assay [5] deals with T4, SpNanA (Streptococcus pneumoniae, UniProt P62575). In words: biochemical.
T4 sequence (P62575 54-1035): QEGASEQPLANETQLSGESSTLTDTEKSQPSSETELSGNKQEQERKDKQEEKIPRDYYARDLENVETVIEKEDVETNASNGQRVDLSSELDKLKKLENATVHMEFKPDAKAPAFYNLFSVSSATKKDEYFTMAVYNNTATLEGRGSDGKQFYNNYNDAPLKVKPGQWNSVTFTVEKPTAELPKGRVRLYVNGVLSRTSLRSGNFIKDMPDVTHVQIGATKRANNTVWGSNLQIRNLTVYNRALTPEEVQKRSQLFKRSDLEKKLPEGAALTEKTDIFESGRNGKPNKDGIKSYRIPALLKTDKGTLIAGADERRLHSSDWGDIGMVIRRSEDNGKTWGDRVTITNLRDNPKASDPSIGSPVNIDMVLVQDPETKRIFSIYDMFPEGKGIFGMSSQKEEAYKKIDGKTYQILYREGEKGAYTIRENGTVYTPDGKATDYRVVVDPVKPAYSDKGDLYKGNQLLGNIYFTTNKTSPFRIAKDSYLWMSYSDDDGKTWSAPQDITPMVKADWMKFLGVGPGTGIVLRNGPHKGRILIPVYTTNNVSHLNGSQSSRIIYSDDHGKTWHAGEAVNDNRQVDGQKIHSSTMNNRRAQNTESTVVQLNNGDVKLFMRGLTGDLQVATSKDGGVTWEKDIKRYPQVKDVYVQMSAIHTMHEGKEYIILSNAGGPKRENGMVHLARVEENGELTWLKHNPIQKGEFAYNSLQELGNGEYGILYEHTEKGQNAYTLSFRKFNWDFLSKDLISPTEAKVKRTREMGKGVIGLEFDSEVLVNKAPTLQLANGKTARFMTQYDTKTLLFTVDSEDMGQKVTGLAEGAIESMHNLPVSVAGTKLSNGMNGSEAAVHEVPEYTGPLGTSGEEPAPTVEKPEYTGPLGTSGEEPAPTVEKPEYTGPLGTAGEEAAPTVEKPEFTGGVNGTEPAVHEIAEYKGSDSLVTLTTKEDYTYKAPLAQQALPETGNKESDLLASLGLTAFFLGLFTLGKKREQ
Assay [6] addresses T5, BiNanH2 (Bifidobacterium longum subsp. infantis, UniProt A0ACD7UU12). In words: biochemical. It is filed as biochemical, Bifidobacterium longum subsp. infantis ATCC15697.
Assay [7] has as its target T6, PmST1 (Pasteurella multocida, UniProt Q15KI8). As to the kind of experiment: biochemical. The note with it: for inhibition at 100 µM / inhibition at 1000 µM: read-out: Percentage inhibition, PmST1.
The next assay concerns the target SpNanB (Streptococcus pneumoniae serotype 4, UniProt Q54727). In words: biochemical. The note with it: for inhibition at 100 µM / inhibition at 1000 µM: read-out: Percentage inhibition, SpNanB.
The target of assay [8] is T7, V. cholerae sialidase (Vibrio cholerae serotype O1, UniProt P0C6E9). In words: biochemical. It is filed as biochemical.
T7 sequence (P0C6E9 25-781): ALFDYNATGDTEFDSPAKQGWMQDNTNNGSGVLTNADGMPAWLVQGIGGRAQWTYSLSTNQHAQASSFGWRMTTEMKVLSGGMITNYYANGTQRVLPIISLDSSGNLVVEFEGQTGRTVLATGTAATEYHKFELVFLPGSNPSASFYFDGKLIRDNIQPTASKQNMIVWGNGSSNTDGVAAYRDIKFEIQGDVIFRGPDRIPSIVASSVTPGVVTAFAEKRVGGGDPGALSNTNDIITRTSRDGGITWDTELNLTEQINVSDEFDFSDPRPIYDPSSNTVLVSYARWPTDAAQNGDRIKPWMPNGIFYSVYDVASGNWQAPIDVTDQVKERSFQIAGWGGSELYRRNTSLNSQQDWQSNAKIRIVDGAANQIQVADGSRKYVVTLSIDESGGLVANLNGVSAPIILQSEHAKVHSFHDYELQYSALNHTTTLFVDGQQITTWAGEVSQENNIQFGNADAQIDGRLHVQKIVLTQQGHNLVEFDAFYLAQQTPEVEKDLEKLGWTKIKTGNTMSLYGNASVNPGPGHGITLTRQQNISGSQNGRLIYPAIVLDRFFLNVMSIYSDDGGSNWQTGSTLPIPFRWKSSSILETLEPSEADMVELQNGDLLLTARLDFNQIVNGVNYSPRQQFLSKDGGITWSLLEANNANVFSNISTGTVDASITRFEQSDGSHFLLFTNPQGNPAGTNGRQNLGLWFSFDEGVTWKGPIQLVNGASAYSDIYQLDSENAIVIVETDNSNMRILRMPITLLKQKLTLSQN
For assay [9], the target named is T1, SpNanC. Conditions: read-out: IC50, SpNanC; substrate Neu5Acα2–3GalβpNP; ref [25]; cited from earlier work.
Assay [10] concerns the target T6, PmST1. Conditions: read-out: IC50, PmST1; substrate Neu5Acα2–3GalβpNP; ref [25]; cited from earlier work.
Assay [11] deals with T3, A. ureafaciens sialidase. The note with it: read-out: IC50, A. ureafaciens; substrate Neu5Acα2–3GalβpNP; ref [47]; cited from earlier work.
In assay [12] the test system is C. perfringens sialidase CpNanI. It is filed as biochemical, Clostridium perfringens. Conditions: inhibitor:sialidase 2:1 molar ratio, 23 °C; for sensitivity of CpNanI to the covalent inhibitor in the time course study: Figures 2A, S2A.
Assay [13] concerns the target T2, hNEU2. It is filed as biochemical. The note with it: inhibitor:sialidase 2:1 molar ratio; 23 °C; Figures 2E, S2E.
Assay [14] has as its target T4, SpNanA. It is filed as biochemical. Conditions: inhibitor:sialidase 2:1 molar ratio, 23 °C.
Assay [15] has as its target T7, V. cholerae sialidase. Type of assay: biochemical. The note with it: inhibitor:sialidase 2:1 molar ratio; 23 °C.
The target of assay [16] is T5, BiNanH2. Type of assay: biochemical, Bifidobacterium longum subsp. infantis ATCC15697. Conditions: inhibitor:sialidase 2:1 molar ratio, 23 °C.
Where [17] appears, read: read-out: Percentage inhibition, C. perfringens.
The mark [18] stands for this setting: read-out: Percentage inhibition, SpNanA.
Where [19] appears, read: read-out: Percentage inhibition, BiNanH2.
Setting [20] is: read-out: Percentage inhibition, V. cholerae.

T2 sequence (Q9Y3R4 whole entry): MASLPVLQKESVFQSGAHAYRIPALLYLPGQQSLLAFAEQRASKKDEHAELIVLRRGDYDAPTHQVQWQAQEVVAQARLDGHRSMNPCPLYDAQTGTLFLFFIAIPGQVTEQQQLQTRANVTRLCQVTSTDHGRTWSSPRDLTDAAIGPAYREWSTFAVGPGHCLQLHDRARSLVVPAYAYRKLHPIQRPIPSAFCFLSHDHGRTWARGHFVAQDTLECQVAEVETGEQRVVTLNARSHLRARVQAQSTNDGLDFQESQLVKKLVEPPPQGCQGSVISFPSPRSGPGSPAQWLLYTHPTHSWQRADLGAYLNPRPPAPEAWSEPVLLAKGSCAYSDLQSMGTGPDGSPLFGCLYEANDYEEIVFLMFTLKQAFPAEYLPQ
Chain of SpNanB (Q54727 30-697): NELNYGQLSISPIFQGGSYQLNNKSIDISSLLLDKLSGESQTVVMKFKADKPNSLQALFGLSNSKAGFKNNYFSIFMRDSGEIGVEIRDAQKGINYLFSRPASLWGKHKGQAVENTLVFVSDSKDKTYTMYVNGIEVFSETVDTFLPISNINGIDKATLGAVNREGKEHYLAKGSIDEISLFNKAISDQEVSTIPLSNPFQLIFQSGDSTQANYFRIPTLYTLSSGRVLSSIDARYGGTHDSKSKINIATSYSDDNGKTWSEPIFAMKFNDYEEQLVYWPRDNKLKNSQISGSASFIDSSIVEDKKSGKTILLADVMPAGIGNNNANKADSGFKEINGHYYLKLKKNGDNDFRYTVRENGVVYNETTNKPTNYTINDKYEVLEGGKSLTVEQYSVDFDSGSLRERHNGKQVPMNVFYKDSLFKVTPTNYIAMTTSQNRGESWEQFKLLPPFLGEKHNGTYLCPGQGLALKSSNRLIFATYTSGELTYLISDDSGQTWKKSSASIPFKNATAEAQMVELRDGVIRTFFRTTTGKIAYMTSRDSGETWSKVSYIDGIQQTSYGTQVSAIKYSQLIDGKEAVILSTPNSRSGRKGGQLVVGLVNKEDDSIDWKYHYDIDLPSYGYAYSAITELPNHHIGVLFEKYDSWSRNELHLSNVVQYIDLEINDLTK

In general, inhibition refers to the share of the control response that was lost under treatment. Broadly, the IC50 is the midpoint of a concentration-inhibition curve. For `O=C(CO)N[C@@H]1[C@@H](O)[C@H](F)[C@](F)(C(=O)O)O[C@H]1[C@H](O)[C@H](O)CO` [Compound 4, 5-glycolamido-2,3,5-trideoxy-3-fluoro-D-erythro-α-L-gluco-non-2-ulopyranosylonic fluoride], the inhibition at 100 µM on SpNanC [1] was less than 1%; on hNEU2 [2], 80.4 ± 1.3%; in assay [3] (setting [17]), 71.6 ± 1.2%; on A. ureafaciens sialidase [4] it was 96.1 ± 0.6%; at SpNanA [5] (setting [18]) it was 78.4 ± 0.5%; on BiNanH2 [6] (setting [19]) it was 87.3 ± 0.8%. The inhibition at 100 µM on PmST1 [7] was less than 1%; at SpNanB it was 25.3 ± 1.7%; at V. cholerae sialidase [8] (setting [20]), 97.8 ± 0.1%. In addition, the inhibition at 1000 µM on SpNanC [1] amounted to 5.5 ± 0.2%; at PmST1 [7], 22.4 ± 0.1%; on SpNanB it was 26 ± 4.9%. For the same compound, the half-maximal inhibitory concentration (IC50) was greater than 1000 µM on PmST1 [7], greater than 1000 µM on SpNanB and 1.6 ± 0.1 µM against V. cholerae sialidase [8].
With `CC(=O)N[C@@H]1[C@@H](O)[C@@H](F)[C@](F)(C(=O)O)O[C@H]1[C@H](O)[C@H](O)CO` [Compound 5, 5-Acetamido-2,3,5-trideoxy-3-fluoro-D-erythro-α-L-manno-non-2-ulopyranosylonic fluoride], the inhibition at 100 µM on SpNanC [1] is less than 1%; on hNEU2 [2], 69.7 ± 0.4%; in assay [3] (setting [17]) it was 99.9 ± 0.1%; on A. ureafaciens sialidase [4], 99.9 ± 0.2%; on SpNanA [5] (setting [18]) it was 99.9 ± 0.1%; at BiNanH2 [6] (setting [19]), 98.9 ± 0.5%. The inhibition at 100 µM on PmST1 [7] is less than 1%; on SpNanB, 12 ± 0.2%; on V. cholerae sialidase [8] (setting [20]), 96.8 ± 1.4%. Moreover, the inhibition at 1000 µM on SpNanC [1] was 55.2 ± 0.4%; at PmST1 [7], 3 ± 0.6%; at SpNanB it was 19 ± 0.2%. Moreover, the IC50 is 0.18 µM in assay [3]; 0.13 µM against SpNanA [5]; greater than 1000 µM against PmST1 [7]; greater than 1000 µM against SpNanB; 0.33 µM at V. cholerae sialidase [8].
Turning to `CC(=O)N[C@H]1[C@H]([C@H](O)[C@H](O)CO)OC(C(=O)O)=C[C@@H]1O` [Neu5Ac2en, 2-deoxy-2,3-didehydro-N-acetylneuraminic acid], the concentration for half-maximal inhibition (IC50) on SpNanC [9] was greater than 1000 µM; at PmST1 [10], greater than 1000 µM; on A. ureafaciens sialidase [11], 8.1 ± 0.3 µM.
For `CC(=O)N[C@@H]1[C@@H](O)[C@@H](F)[C@](F)(C(=O)O)O[C@H]1[C@H](O)[C@H](O)CN=[N+]=[N-]` [Compound 6, 5-Acetamido-9-azido-2,3,5,9-tetradeoxy-3-fluoro-D-erythro-α-L-manno-non-2-ulopyranosylonic fluoride], the “time for de-activation of CpNanI” value in assay [12] was less than 10 min. In [12], the “sensitivity of CpNanI to the covalent inhibitor in the time course study” value was “sensitive”. Further, the inhibition at 100 µM at SpNanC [1] is less than 1%; on hNEU2 [2], 1.5 ± 0.3%; in [3] (setting [17]), 99.9 ± 0.1%; at A. ureafaciens sialidase [4], 99.9 ± 0.1%; at SpNanA [5] (setting [18]), 99.9 ± 0.1%; on BiNanH2 [6] (setting [19]), 98.8 ± 2.2%. The inhibition at 100 µM was less than 1% on PmST1 [7], 16.7 ± 1.6% at SpNanB and 99.9 ± 0.6% at V. cholerae sialidase [8] (setting [20]). For the same compound, the inhibition at 1000 µM on SpNanC [1] turned out to be 83.7 ± 3.5%; at hNEU2 [2], 53.4 ± 1.3%; on PmST1 [7], 6 ± 0.4%; on SpNanB, 43.8 ± 1.4%. The “sensitivity of hNEU2 to the covalent inhibitor in the time course study” value at hNEU2 [13] is “except for hNEU2”. The concentration for half-maximal inhibition (IC50) in assay [3] was 0.024 µM; against SpNanA [5], 0.033 µM; at PmST1 [7] it was greater than 1000 µM; at SpNanB, greater than 1000 µM; against V. cholerae sialidase [8], 0.18 µM. For the same compound, on SpNanA [14], the “time for de-activation of SpNanA” value is given as less than 10 min. Also, at SpNanA [14] (Figures 2C, S2C), the “sensitivity of SpNanA to the covalent inhibitor in the time course study” value is given as “sensitive”. The “time for de-activation of V. cholerae sialidase” value at V. cholerae sialidase [15] was less than 10 min. For the same compound, on BiNanH2 [6] (selectivity BiNanH2 versus hNEU2), the “IC50 for BiNanH2 better than that for hNEU2” value is reported as “at least 500 fold”. Further, the “time for de-activation of BiNanH2” value at BiNanH2 [16] was less than 10 min. In addition, the “sensitivity of BiNanH2 to the covalent inhibitor in the time course study” value at BiNanH2 [16] (Figures 2D, S2D) is recorded as “sensitive”. In addition, the “IC50 for V. cholerae sialidase better than that for hNEU2” value against V. cholerae sialidase [8] (selectivity V. cholerae sialidase versus hNEU2) is “at least 500 fold”.
Turning to `[N-]=[N+]=N[C@@H]1[C@@H](O)[C@H](F)[C@](F)(C(=O)O)O[C@H]1[C@H](O)[C@H](O)CO` [Compound 3, 5-Azido-2,3,5-trideoxy-3-fluoro-D-erythro-α-L-gluco-non-2-ulopyranosylonic fluoride], the inhibition at 100 µM on SpNanC [1] is less than 1%; at hNEU2 [2], 37.5 ± 1.2%; in assay [3] (setting [17]) it was 29.8 ± 1.2%; at A. ureafaciens sialidase [4], 75.2 ± 0.2%; on SpNanA [5] (setting [18]) it was less than 1%; on BiNanH2 [6] (setting [19]) it was 40.8 ± 3.4%. The inhibition at 100 µM at PmST1 [7] is less than 1%; on SpNanB, 35.1 ± 0.8%; at V. cholerae sialidase [8] (setting [20]), 25 ± 1%. In addition, the inhibition at 1000 µM on SpNanC [1] is 6.5 ± 0.8%; at hNEU2 [2], 80.7 ± 1.2%; in assay [3] (setting [17]), 30 ± 0.8%; at SpNanA [5] (setting [18]) it was 29.6 ± 0.9%; at BiNanH2 [6] (setting [19]), 85.6 ± 0.5%; at PmST1 [7] it was 7.8 ± 0.3%. For the same compound, the inhibition at 1000 µM on SpNanB came to 38 ± 0.9%; at V. cholerae sialidase [8] (setting [20]), 76.6 ± 4.6%. Also, the 50% inhibitory concentration (IC50) (in assay [3]; against SpNanA [5]; against PmST1 [7]; at SpNanB) was greater than 1000 µM in each case.
`CC(=O)N[C@@H]1[C@@H](O)[C@H](F)[C@](F)(C(=O)O)O[C@H]1[C@H](O)[C@H](O)CN=[N+]=[N-]` [Compound 2, 5-Acetamido-9-azido-2,3,5,9-tetradeoxy-3-fluoro-D-erythro-α-L-gluco-non-2-ulopyranosylonic fluoride]: in assay [12], the “sensitivity of CpNanI to the covalent inhibitor in the time course study” value is “also sensitive”. Also, the inhibition at 100 µM at SpNanC [1] is less than 1%; at hNEU2 [2], 82.3 ± 2.8%; in assay [3] (setting [17]) it was 99.9 ± 0.1%; at A. ureafaciens sialidase [4] it was 99.9 ± 0.2%; at SpNanA [5] (setting [18]) it was 85.8 ± 0.7%; on BiNanH2 [6] (setting [19]), 98.9%. Also, the inhibition at 100 µM was less than 1% on PmST1 [7], 26.8 ± 0.2% on SpNanB and 99.2 ± 0.5% at V. cholerae sialidase [8] (setting [20]). In addition, the figures for the inhibition at 1000 µM at SpNanC [1], at PmST1 [7] and at SpNanB were 53.9 ± 0.1%, 9.3 ± 2.3% and 51.9 ± 2.2%, respectively. In addition, the IC50 in assay [3] is 0.73 µM; against SpNanA [5], 0.21 µM; at PmST1 [7], greater than 1000 µM; on V. cholerae sialidase [8], 0.73 µM.
On to `CC(=O)N[C@@H]1[C@@H](O)[C@H](F)[C@](F)(C(=O)O)O[C@H]1[C@H](O)[C@H](O)CO` [Compound 1, 5-Acetamido-2,3,5-trideoxy-3-fluoro-D-erythro-α-L-gluco-non-2-ulopyranosylonic fluoride], for which the half-maximal inhibitory concentration (IC50) at SpNanC [1] (read-out: IC50, SpNanC) is greater than 1000 µM; against PmST1 [7], greater than 1000 µM; on SpNanB, greater than 1000 µM; on V. cholerae sialidase [8], 2 ± 0.1 µM. Besides, the inhibition at 100 µM on SpNanC [1] is less than 1%; at hNEU2 [2], 75.4 ± 0.6%; in assay [3] (setting [17]), 80.6 ± 0.7%; at A. ureafaciens sialidase [4], 99.2 ± 0.3%; on SpNanA [5] (setting [18]), 99.7 ± 0.3%; at BiNanH2 [6] (setting [19]) it was 95.4 ± 0.9%. For the same compound, the inhibition at 100 µM was less than 1% at PmST1 [7], 11.8 ± 1% at SpNanB and 97.7 ± 0.3% on V. cholerae sialidase [8] (setting [20]). The results for the inhibition at 1000 µM on SpNanC [1], on PmST1 [7] and on SpNanB were 25.1 ± 6.1%, 4.3 ± 0.1% and 30.2 ± 2.2%, respectively.
